Laboratory results reported in patent publication US12479843B2, “Spiro ring-containing quinazoline compounds” (WIGEN BIOMEDICINE TECHNOLOGY (SHANGHAI) CO., LTD., priority 2019, dated 2025).

Assays:
pERK level in H358 cells = assay: pERK and ERK protein content assay in H358 cells (ELISA); format: cell-based; conditions: Homo sapiens, NCI-H358, compound 1 μM, 24 h, pERK/ERK ratio compared with DMSO group, read-out: Inhibition rate (%) of pERK level
Method in brief: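 H358 cells grown one day, then treated 24 h with compound at 1 μM. pERK and ERK in lysates measured by ELISA; pERK/ERK ratio expressed as percent inhibition versus DMSO.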

H358 cells = assay: Antiproliferative activity against H358 cells (Cell Titer Glow, ultra-low attachment plate); format: cell-based; conditions: Homo sapiens, NCI-H358, 72 h, 96-well ultra-low attachment plate, three days after addition of compound, Cell Titer Glow
Procedure: 2500 H358 cells were seeded in a 96-well ultra-low attachment plate (corning, 7007). After one day of growth, a serially diluted compound (a maximum concentration of 5 μM, 5-fold dilution, a total of five doses) was added. Three days after the addition of the compound, Cell Titer Glow (Promega, G9681) was added to evaluate pellet growth, and the IC50 value was calculated.

Structure (SMILES)	inhibition at 1 µM (pERK level in H358 cells) [%]	IC50 (H358 cells) [nM]
C=C(F)C(=O)N1CC2(CCN(c3nc(N4CC5(CCN(CCCOC)CC5)C4)nc4c(OCC(F)(F)F)c(-c5c(C)ccc6[nH]ncc56)c(C5CC5)cc34)CC2)C1 [Compound 96]	> 90	< 300
C=CC(=O)N1CC2(CCN(c3nc(O[C@H]4C[C@@H]5C[C@H]4CS5(=O)=O)nc4c(OCC(F)(F)F)c(-c5c(C)ccc6[nH]ncc56)c(C5CC5)cc34)CC2)C1 [Compound 314]	> 90	< 300
C=CC(=O)N1CC2(CCN(c3nc(OC4CCN(CCOC)CC4)nc4c(OCC(F)(F)F)c(-c5c(C)ccc6[nH]ncc56)c(F)cc34)CC2)C1 [Compound 11]	> 90	< 300
C=CC(=O)N1CC2(CCN(c3nc(N4CC[C@@H](N5CC[C@H](F)C5)C4)nc4c(OCC(F)(F)F)c(-c5c(C)ccc6[nH]ncc56)c(C5CC5)cc34)CC2)C1 [Compound 192]	> 90	< 300
C=CC(=O)N1CC2(CCN(c3nc(N4CC(N5CCC(C)C5)C4)nc4c(OCC(F)(F)F)c(-c5c(C)c(C)cc6[nH]ncc56)c(C5CC5)cc34)CC2)C1 (stereo not drawn) [Compound 324]	> 90	< 300
C=C(F)C(=O)N1CC2(CCN(c3nc(N4CC5(CCN(C6COC6)CC5)C4)nc4c(OCC(F)(F)F)c(-c5c(C)ccc6[nH]ncc56)c(C5CC5)cc34)CC2)C1 [Compound 90]	> 90	< 300
C=CC(=O)N1CC2(CCN(c3nc(OC[C@@H]4COCCN4C)nc4c(OCC(F)(F)F)c(-c5c(C)ccc6[nH]ncc56)c(C5CC5)cc34)CC2)C1 [Compound 115]	50 to 90	300 to 1000
C=C(F)C(=O)N1CC2(CCN(c3nc(O[C@H]4CCN(CCOC)C4)nc4c(OCC(F)(F)F)c(-c5c(C)ccc6[nH]ncc56)c(C5CC5)cc34)CC2)C1 [Compound 65]	> 90	< 300
C=CC(=O)N1CC2(CCN(c3nc(N4CC5(CN(CCOC)C5)C4)nc4c(OCC(F)(F)F)c(-c5c(C)ccc6[nH]ncc56)c(C5CC5)cc34)CC2)C1 [Compound 71]	> 90	< 300
C=CC(=O)N1CC2(CCN(c3nc(N4CC(N5CCCC5)C4)nc4c(OCC(F)(F)F)c(-c5c(C)c(F)cc6[nH]ncc56)c(C5CC5)cc34)CC2)C1 [Compound 220]	> 90	< 300
C=CC(=O)N1CC2(CCN(c3nc(N4CCC5(CN(CCOC)C5)C4)nc4c(OCC(F)(F)F)c(-c5c(C)ccc6[nH]ncc56)c(C5CC5)cc34)CC2)C1 [Compound 99]	> 90	< 300
C=CC(=O)N1CC2(CCN(c3nc(OC4CCS(=O)(=O)C(C)(C)C4)nc4c(OCC(F)(F)F)c(-c5c(C)ccc6[nH]ncc56)c(C5CC5)cc34)CC2)C1 (stereo not drawn) [Compound 311]	> 90	< 300
